# Results: patent US20230240332A1, “METHOD FOR PREPARING AMINO ACID GRANULE FROM FERMENTATION BROTH” (CJ CHEILJEDANG CORPORATION, priority 2020, published 2023)
# Assay: Stability of tryptophan in fermentation broth with calcium added at molar ratio 0.4
# Assay type: physicochemical
# Details: calcium added at molar ratio of 0.4; increase in pH
# Description: , respectively, in the same manner as in Examples 1-1 to 1-3 except that a tryptophan-containing fermentation broth having the composition disclosed in Table 2 was used, and the pH was 8.8 and 9.0, respectively. The sample of Comparative Example 2 was prepared by concentrating the tryptophan-containing fermentation broth without adding calcium hydroxide to the tryptophan-containing fermentation broth. […] The fermentation broth to which the slurry was added was concentrated to a degree of concentration of 30% (w/w) in Example 1-4 and a degree of concentration of 35% (w/w) in Example 1-5. It was confirmed that the fermentation broth gelled and lost fluidity when concentrated to a higher degree of concentration. At this time, in the case of the fermentation broth to which a slurry was not added, only a degree of concentration of about 25.5% (w/w) was achieved.
smiles,measurement,value
N[C@@H](Cc1c[nH]c2ccccc12)C(=O)O [tryptophan],decomposition of tryptophan,"decomposed into tryptamine, indole-acetate, and anthranilic acid"
